Source: patent publication US8686022B2, “7-(piperazine-1-ymethyl)-1H-indole-2-carboxylic acid (phenyl)-amide derivatives and allied compounds as p38 MAP kinase inhibitors for the treatment of respiratory diseases” (Boehringer Ingelheim International GmbH, priority 2008, dated 2014)
Values after ≈ are worked out from the molar mass of the structure shown.

Tests used:
p38 MAP-kinase = p38 MAP-kinase (Homo sapiens, UniProt Q16539); experiment: p38 MAP-kinase enzymatic assay (phosphorylation of GST-tagged ATF2, chemoluminescence); format: biochemical; settings: inhibitor concentration 1 μM; activated p38 MAP-kinase 1 nM; ATP 100 μM; read-out: p38 (% Inh @ 1 μM)
Sequence of p38 MAP-kinase (Q16539 whole entry): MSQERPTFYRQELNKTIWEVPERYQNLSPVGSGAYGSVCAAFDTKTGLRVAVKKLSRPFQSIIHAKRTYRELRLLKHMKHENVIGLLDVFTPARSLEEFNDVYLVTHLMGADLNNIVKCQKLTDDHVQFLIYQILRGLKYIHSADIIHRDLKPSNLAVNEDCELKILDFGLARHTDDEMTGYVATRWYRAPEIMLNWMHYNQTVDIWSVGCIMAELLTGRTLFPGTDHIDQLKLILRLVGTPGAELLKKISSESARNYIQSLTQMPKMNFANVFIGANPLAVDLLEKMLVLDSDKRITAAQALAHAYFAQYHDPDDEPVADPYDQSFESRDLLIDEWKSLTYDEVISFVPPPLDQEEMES
Method: In this, the amount of a substrate phosphorylated by the kinase is quantified. The test is carried out as follows:
The kinase reaction is carried out in the presence of HEPES (20 mM, pH 7), MgCl2 (10 mM), DTT (1 mM) and TWEEN20 (0.01%). First, dimethylsulphoxide or inhibitor (final concentration: 1 μM) dissolved in dimethylsulphoxide are placed in a reaction vessel. Then the activated p38 MAP-kinase (final concentration 1 nM) is added and the mixture is incubated for 4 h at ambient temperature. Then a mixture of substrate (GST-tagged ATF2) and ATP is added and everything is incubated together for a further hour (final concentration ATP: 100 μM; final concentration ATF2: 10 nM).
The concentration of phosphorylated ATF2 is quantified by chemoluminescence-induced light emission. For this, a glutathione donor bead (final concentration: 5 μg/ml) which binds to the gluthathione on the ATF2 and phospho-ATF2 antibodies are added to the reaction mixture (final concentration: 3 nM; this binds the phosphate group added by the kinase reaction) to which a Protein A Acceptor Bead (final concentration: 5 μg/ml) binds. These components are dissolved in a buffer which contains 20 mM HEPES pH 7.0, 200 mM NaCL, 80 mM EDTA as well as 0.3% BSA. This reaction mixture is incubated in the dark for 1 hour at ambient temperature. When these beads come physically close, visible light is emitted which is measured in a photometer at 520-620 nm.
To determine the inhibitory activity of the compounds according to the invention a calculation is made to determine the percentage by which the kinase activity is inhibited at a fixed inhibitor concentration of 1 μM. The maximum activity is determined by non-inhibited kinase. The minimum activity or nonspecific background activity is determined using a reaction mixture without kinase.
Table 2 summarises the degree of inhibition of the enzyme p38 MAP-kinase—as described hereinbefore—mediated by the compounds according to the invention detailed in the section “Preparation of the final compounds”.

cytochrome P450 2C9 = cytochrome P450 2C9 (Homo sapiens, UniProt P11712); experiment: Determining the cyp2C9 activity (O-demethylation of [O-methyl-14C]-naproxen); format: in vitro ADME; settings: human recombinant cytochrome P450 2C9; 37° C.; <0.4 μM when inhibition >50% at lowest concentration; read-out: CYP 2C9 IC50
Sequence of cytochrome P450 2C9 (P11712 whole entry): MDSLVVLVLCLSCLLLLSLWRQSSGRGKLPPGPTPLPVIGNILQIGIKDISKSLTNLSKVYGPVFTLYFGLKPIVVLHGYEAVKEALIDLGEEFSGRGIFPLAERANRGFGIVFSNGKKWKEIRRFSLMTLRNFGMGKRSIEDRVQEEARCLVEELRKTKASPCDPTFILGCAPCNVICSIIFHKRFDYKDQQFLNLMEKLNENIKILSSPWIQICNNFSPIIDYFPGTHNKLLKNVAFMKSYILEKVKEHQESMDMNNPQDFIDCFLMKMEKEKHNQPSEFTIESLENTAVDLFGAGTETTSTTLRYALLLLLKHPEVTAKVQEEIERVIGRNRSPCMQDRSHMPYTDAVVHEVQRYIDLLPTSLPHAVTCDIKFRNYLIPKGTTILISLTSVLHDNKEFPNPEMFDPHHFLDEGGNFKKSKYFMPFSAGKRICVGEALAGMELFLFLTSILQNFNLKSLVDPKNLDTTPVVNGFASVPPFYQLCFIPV
Method: Determining the cyp2C9 Activity:
The assay is carried out in a robot system with 96-well plates. The final incubation volume is 200 μl of TRIS-Puffer (0.1 M), magnesium chloride (5 mM), recombinant protein (40 pmol/ml), ^14C-labelled naproxen (80 μM) and the test compound in one of 4 concentrations (50 μM, 10 μM, 2 μM and 0.4 μM) as a duplicate in each case. After a short preincubation period the reactions are started by the addition of the cofactor (NADPH, 1 mM) and ended after 15 min by the addition of 50 μl of a 10% aqueous trichloroacetic acid solution. One aliquot of the incubate is transferred onto a 96-well solid phase extraction plate and extracted. The ^14C-formaldehyde formed during the reaction is not retained on the solid phase extraction plate and is thus separated from the unmetabolised substrate by washing the solid phase extraction plate with water. One aliquot of the eluate is transferred into a well plate suitable for liquid scintillation. […] The IC50 is determined by the least squares method using the following formula: control activity=(100% control activity/(1+(I/IC50)S))−B where I=Inhibitor concentration S=Pitch B=Background activity
When the inhibition of the reaction is >50% even at the lowest concentration of the test compound, the IC50 is given as <0.4 μM.

[1] = Determining the solubility (saturated solution in McIlvaine buffer pH 7.4, UV spectroscopy); format: physicochemical; settings: pH 7.4, aqueous buffer, thermodynamic from solid, shaken 2 hours, 0.75 mg solid in 0.75 ml
Method: Determining the Solubility:
Saturated solutions are prepared in suitable well dishes by adding 0.75 ml of a McIlvaine buffer (pH 7.4) to the well in question containing 0.75 mg of solid of an active substance. The wells are shaken for 2 hours and then filtration is carried out through a suitable filter membrane (typically polytetrafluoroethylene with a pore size of 0.45 μm). Filter absorption is prevented by discarding the first few drops of filtrate. The amount of active substance dissolved is determined by UV spectroscopy.

COc1c(NC(=O)c2cc3cccc(CN4CCN(C(=O)CN5CC[C@H](O)C5)CC4)c3n2C)cc(C(C)(C)C)cc1NS(C)(=O)=O [1(15), (S)-7-{4-[2-(3-hydroxy-pyrrolidin-1-yl)-acetyl]-piperazin-1-ylmethyl}-1-methyl-1H-indole-2-carboxylic acid-(5-tert-butyl-3-methanesulphonylamino-2-methoxy-phenyl)-amide]
inhibition at 1 µM (p38 MAP-kinase): 98.9%
IC50 (cytochrome P450 2C9): 1.21 µM
solubility at 2 h [1]: 73 µg/mL (≈ 111 µM)

COc1c(NC(=O)c2cc3cccc(CN4CCN(C(=O)CN5CCCC5)CC4)c3n2C)cc(C(C)(C)C)cc1NS(C)(=O)=O [1(16), 1-methyl-7-[4-(2-pyrrolidin-1-yl-acetyl)-piperazin-1-ylmethyl]-1H-indole-2-carboxylic acid-(5-tert-butyl-3-methanesulphonylamino-2-methoxy-phenyl)-amide]
inhibition at 1 µM (p38 MAP-kinase): 98.4%
IC50 (cytochrome P450 2C9): 20.4 µM
solubility at 2 h [1]: 620 µg/mL (≈ 971 µM)

COc1c(NC(=O)c2cc3cccc(CN4CCN(C(=O)CN5CCN(C)CC5)CC4)c3n2C)cc(C(C)(C)C)cc1NS(C)(=O)=O [1(17), 1-methyl-7-{4-[2-(4-methyl-piperazin-1-yl)-acetyl]-piperazin-1-ylmethyl}-1H-indole-2-carboxylic acid-(5-tert-butyl-3-methanesulphonylamino-2-methoxy-phenyl)-amide]
inhibition at 1 µM (p38 MAP-kinase): 99.1%
IC50 (cytochrome P450 2C9): 0.99 µM
solubility at 2 h [1]: 46 µg/mL (≈ 68.9 µM)

COc1c(NC(=O)c2cc3cccc(CC4CCCN(C(=O)[C@@H]5CCCN5C)CC4)c3n2C)cc(C(C)(C)C)cc1NS(C)(=O)=O (stereo partly drawn) [1(18), 1-methyl-7-[1-((2S)-1-methyl-pyrrolidine-2-carbonyl)-azepan-4-ylmethyl]-1H-indole-2-carboxylic acid-(5-tert-butyl-3-methanesulphonylamino-2-methoxy-phenyl)-amide]
inhibition at 1 µM (p38 MAP-kinase): 98%
IC50 (cytochrome P450 2C9): 0.84 µM
solubility at 2 h [1]: 80 µg/mL (≈ 123 µM)

COc1c(NC(=O)c2cc3cccc(CC4CCCN(C(=O)C5CCN(C)CC5)CC4)c3n2C)cc(C(C)(C)C)cc1NS(C)(=O)=O (stereo not drawn) [1(19), 1-methyl-7-[1-(1-methyl-piperidine-4-carbonyl)-azepan-4-ylmethyl]-1H-indole-2-carboxylic acid-(5-tert-butyl-3-methanesulphonylamino-2-methoxy-phenyl)-amide]
inhibition at 1 µM (p38 MAP-kinase): 98.5%
IC50 (cytochrome P450 2C9): 3.59 µM
solubility at 2 h [1]: 98 µg/mL (≈ 147 µM)

COc1c(NC(=O)c2cc3cccc(CC4CCCN(C(=O)[C@H]5CCCN5C)CC4)c3n2C)cc(C(C)(C)C)cc1NS(C)(=O)=O (stereo partly drawn) [1(20), 1-methyl-7-[1-((2R)-1-methyl-pyrrolidine-2-carbonyl)-azepan-4-ylmethyl]-1H-indole-2-carboxylic acid-(5-tert-butyl-3-methanesulphonylamino-2-methoxy-phenyl)-amide]
inhibition at 1 µM (p38 MAP-kinase): 99.1%
IC50 (cytochrome P450 2C9): 2.59 µM
solubility at 2 h [1]: 124 µg/mL (≈ 190 µM)

COc1c(NC(=O)c2cc3cccc(CN4CCCN(C(=O)[C@H]5CCCN5C)CC4)c3n2C)cc(C(C)(C)C)cc1NS(C)(=O)=O [1(21), 1-methyl-7-[4-((2R)-1-methyl-pyrrolidine-2-carbonyl)-[1,4]diazepan-1-ylmethyl]-1H-indole-2-carboxylic acid-(5-tert-butyl-3-methanesulphonylamino-2-methoxy-phenyl)-amide]
inhibition at 1 µM (p38 MAP-kinase): 98.9%
IC50 (cytochrome P450 2C9): 4.02 µM
solubility at 2 h [1]: 45 µg/mL (≈ 68.9 µM)

COc1c(NC(=O)c2cc3cccc(CN4CCC(C(=O)N5CCN(C)CC5)CC4)c3n2C)cc(C(C)(C)C)cc1NS(C)(=O)=O [1(22), 1-methyl-7-[4-(4-methyl-piperazine-1-carbonyl)-piperidin-1-ylmethyl]-1H-indole-2-carboxylic acid-(5-tert-butyl-3-methanesulphonylamino-2-methoxy-phenyl)-amide]
inhibition at 1 µM (p38 MAP-kinase): 99.1%
IC50 (cytochrome P450 2C9): 1.54 µM
solubility at 2 h [1]: 42 µg/mL (≈ 64.3 µM)

COc1c(NC(=O)c2cc3cccc(CN4CCC(C(=O)N5CC[C@H](N(C)C)C5)CC4)c3n2C)cc(C(C)(C)C)cc1NS(C)(=O)=O [1(23), (S)-7-[4-(3-dimethylamino-pyrrolidine-1-carbonyl)-piperidin-1-ylmethyl]-1-methyl-1H-indole-2-carboxylic acid-(5-tert-butyl-3-methanesulphonylamino-2-methoxy-phenyl)-amide]
inhibition at 1 µM (p38 MAP-kinase): 97%
IC50 (cytochrome P450 2C9): 1.77 µM
solubility at 2 h [1]: 280 µg/mL (≈ 420 µM)

COc1c(NC(=O)c2cc3cccc(CN4CCC(C(=O)N5CC[C@@H](N(C)C)C5)CC4)c3n2C)cc(C(C)(C)C)cc1NS(C)(=O)=O [1(24), (R)-7-[4-(3-dimethylamino-pyrrolidine-1-carbonyl)-piperidin-1-ylmethyl]-1-methyl-1H-indole-2-carboxylic acid-(5-tert-butyl-3-methanesulphonylamino-2-methoxy-phenyl)-amide]
inhibition at 1 µM (p38 MAP-kinase): 54.2%
IC50 (cytochrome P450 2C9): 2.47 µM
solubility at 2 h [1]: 36 µg/mL (≈ 54 µM)

CN1CCC[C@H]1C(=O)N1CCN(Cc2cccc3cc(C(=O)Nc4cccc(N5CCOCC5)c4)n(C)c23)CC1 [1(25), (S)-1-methyl-7-[4-(1-methyl-pyrrolidine-2-carbonyl)-piperazin-1-ylmethyl]-1H-indole-2-carboxylic acid-(3-morpholin-4-yl-phenyl)-amide]
inhibition at 1 µM (p38 MAP-kinase): 35.4%
IC50 (cytochrome P450 2C9): 7.91 µM
solubility at 2 h [1]: 48 µg/mL (≈ 88.1 µM)

COc1c(NC(=O)c2cc3cccc(CN4CCN(C(=O)N5CC[C@H](N(C)C)C5)CC4)c3n2C)cc(C(C)(C)C)cc1NS(C)(=O)=O [2(1), (S)-7-[4-(3-dimethylamino-pyrrolidine-1-carbonyl)-piperazin-1-ylmethyl]-1-methyl-1H-indole-2-carboxylic acid (5-tert-butyl-3-methanesulphonylamino-2-methoxy-phenyl)-amide]
inhibition at 1 µM (p38 MAP-kinase): 99%
IC50 (cytochrome P450 2C9): 0.88 µM
solubility at 2 h [1]: 28 µg/mL (≈ 41.9 µM)

COc1c(NC(=O)c2cc3cccc(CN4CCCN(C(=O)[C@H]5CCN(C)C5)CC4)c3n2C)cc(C(C)(C)C)cc1NS(C)(=O)=O [5(1), (S)-1-methyl-7-[4-(1-methyl-pyrrolidine-3-carbonyl)-[1,4]diazepan-1-ylmethyl]-1H-indole-2-carboxylic acid-(5-tert-butyl-3-methanesulphonylamino-2-methoxy-phenyl)-amide]
inhibition at 1 µM (p38 MAP-kinase): 94.9%
IC50 (cytochrome P450 2C9): 2.04 µM
solubility at 2 h [1]: 170 µg/mL (≈ 260 µM)

COc1c(NC(=O)c2cc3cccc(CN4CCCN(C(=O)[C@@H]5CCN(C)C5)CC4)c3n2C)cc(C(C)(C)C)cc1NS(C)(=O)=O [5(2), (R)-1-methyl-7-[4-(1-methyl-pyrrolidine-3-carbonyl)-[1,4]diazepan-1-ylmethyl]-1H-indole-2-carboxylic acid-(5-tert-butyl-3-methanesulphonylamino-2-methoxy-phenyl)-amide]
inhibition at 1 µM (p38 MAP-kinase): 98%
IC50 (cytochrome P450 2C9): 0.99 µM
solubility at 2 h [1]: 160 µg/mL (≈ 245 µM)

COc1c(NC(=O)c2cc3cccc(CN4CCN(C(=O)CN5CC[C@@H](O)C5)CC4)c3n2C)cc(C(C)(C)C)cc1NS(C)(=O)=O [6(1), (R)-7-{4-[2-(3-hydroxy-pyrrolidin-1-yl)-acetyl]-piperazin-1-ylmethyl}-1-methyl-1H-indole-2-carboxylic acid-(5-tert-butyl-3-methanesulphonylamino-2-methoxy-phenyl)-amide]
inhibition at 1 µM (p38 MAP-kinase): 99.2%
IC50 (cytochrome P450 2C9): 0.47 µM
solubility at 2 h [1]: 47 µg/mL (≈ 71.8 µM)
